Experimental data from PMC8772380, “Structural and Biochemical Investigation of Class I Ribonucleotide Reductase from the Hyperthermophile Aquifex aeolicus” (Biochemistry, 2021).

T1: AaR1 (Aquifex aeolicus, UniProt O66503)
T1 construct: gene nrdA; full length, N-terminal His tag and thrombin site (pET-28a), expressed in E. coli BL21(DE3); 93 kDa; monomer-dimer equilibrium
T1 sequence (O66503 1-801): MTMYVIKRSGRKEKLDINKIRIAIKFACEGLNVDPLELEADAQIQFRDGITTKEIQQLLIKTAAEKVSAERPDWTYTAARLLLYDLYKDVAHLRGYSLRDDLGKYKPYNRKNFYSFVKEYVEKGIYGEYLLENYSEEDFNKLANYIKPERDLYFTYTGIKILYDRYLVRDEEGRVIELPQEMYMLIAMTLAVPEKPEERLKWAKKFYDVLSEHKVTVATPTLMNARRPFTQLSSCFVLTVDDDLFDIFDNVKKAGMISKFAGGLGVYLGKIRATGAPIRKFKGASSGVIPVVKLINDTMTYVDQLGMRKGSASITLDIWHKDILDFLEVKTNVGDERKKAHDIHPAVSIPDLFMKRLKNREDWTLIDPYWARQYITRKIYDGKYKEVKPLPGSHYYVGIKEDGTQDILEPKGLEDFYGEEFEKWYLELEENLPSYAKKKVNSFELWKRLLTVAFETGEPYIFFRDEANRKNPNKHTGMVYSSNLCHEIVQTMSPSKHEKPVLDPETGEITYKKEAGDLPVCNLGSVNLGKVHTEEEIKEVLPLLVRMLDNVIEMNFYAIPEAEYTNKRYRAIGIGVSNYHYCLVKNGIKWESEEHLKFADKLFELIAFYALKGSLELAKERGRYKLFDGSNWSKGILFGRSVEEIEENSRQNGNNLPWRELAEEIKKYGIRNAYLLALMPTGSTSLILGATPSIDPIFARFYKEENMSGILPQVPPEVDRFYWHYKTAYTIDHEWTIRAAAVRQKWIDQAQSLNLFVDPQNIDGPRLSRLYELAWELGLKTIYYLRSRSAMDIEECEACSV

T2: A. aeolicus RNR (AaR1 + AaR2) (Aquifex aeolicus, UniProt O66503)
T2 construct: gene nrdA; full length AaR1 and AaR2 (construct lacking the 346-residue intein, equal to mature R2; natural precursor contains the intein), N-terminal His tags with thrombin site, E. coli expression; R2 42 kDa; with Ribonucleoside-diphosphate reductase subunit beta
T2 sequence (O66503 1-801): T1 sequence (O66503 1-801)
T2 sequence (O67475 1-229 partner): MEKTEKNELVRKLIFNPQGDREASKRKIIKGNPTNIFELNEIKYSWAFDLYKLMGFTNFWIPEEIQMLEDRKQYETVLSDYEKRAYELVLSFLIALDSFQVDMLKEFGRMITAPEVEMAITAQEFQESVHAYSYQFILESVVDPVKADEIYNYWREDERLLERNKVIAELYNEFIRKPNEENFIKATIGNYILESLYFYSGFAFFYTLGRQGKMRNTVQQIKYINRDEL
T2 sequence (O67475 576-696 partner): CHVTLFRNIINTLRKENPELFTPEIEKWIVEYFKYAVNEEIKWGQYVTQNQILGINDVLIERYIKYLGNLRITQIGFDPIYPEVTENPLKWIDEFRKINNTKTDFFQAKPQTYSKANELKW

B1: Aquifex aeolicus ribonucleotide reductase R1 protein (α-subunit) (enzyme, UniProt O66503 1-801, looked up)
chain: T1 sequence (O66503 1-801)
notes: Class I ribonucleotide reductase large (α) subunit R1, NrdAh subclass, Aquifex aeolicus; full length, synthetic gene (Genscript) in pET-28a(+) with N-terminal His tag and thrombin cleavage site; theoretical mass of the polypeptide 93 kDa; Homodimer in the crystal; monomer-dimer equilibrium in GEMMA and SEC; No removal of the His tag by thrombin is described; also called AaR1; NrdAh; source: E. …
B2: Aquifex aeolicus ribonucleotide reductase R2 protein (β-subunit), from a construct lacking the intein (enzyme, UniProt O67475 1-229, looked up)
chain: MEKTEKNELVRKLIFNPQGDREASKRKIIKGNPTNIFELNEIKYSWAFDLYKLMGFTNFWIPEEIQMLEDRKQYETVLSDYEKRAYELVLSFLIALDSFQVDMLKEFGRMITAPEVEMAITAQEFQESVHAYSYQFILESVVDPVKADEIYNYWREDERLLERNKVIAELYNEFIRKPNEENFIKATIGNYILESLYFYSGFAFFYTLGRQGKMRNTVQQIKYINRDELCHVTLFRNIINTLRKENPELFTPEIEKWIVEYFKYAVNEEIKWGQYVTQNQILGINDVLIERYIKYLGNLRITQIGFDPIYPEVTENPLKWIDEFRKINNTKTDFFQAKPQTYSKANELKW
notes: Class I ribonucleotide reductase small (β) subunit R2, Aquifex aeolicus; Leu229 is joined to Cys230; The natural gene product carries the intein between Leu229 and Cys230; Theoretical mass of the polypeptide 42 kDa. numbers count on: the mature protein (intein removed); Homodimer in the crystal, GEMMA and SEC; No removal of the His tag is described; also called AaR2; mature AaR2; source: E. coli …

What was measured:
[1] = target: T1, AaR1; experiment: GEMMA, effector-induced R1 dimerization; format: binding; conditions: allosteric; 100 µM dATP, equimolar Mg acetate, 300 mM ammonium acetate pH 7.5, preincubated at 78 °C
[2] = target: T2, A. aeolicus RNR (AaR1 + AaR2); experiment: HPLC NDP reduction assay; format: biochemical; conditions: pH 6.8, 79 °C
[3] = target: the molecule itself; experiment: GEMMA (gas-phase electrophoretic mobility macromolecule analysis); individual R1 or R2 at 0.25 μM, 300 mM ammonium acetate pH 7.5, 0.005% Tween 20, without or with 300 μM ATP or 100 μM dATP (equimolar magnesium acetate); preincubated 2 min at 78 °C, analysed at room temperature
[4] = target: B1; experiment: SEC; equimolar AaR1 and AaR2, 20 μM, with ATP and MgCl2; Superdex 200 PC 3.2/30, 20 mM Hepes pH 7.4, 75 mM NaCl, 0.2 mM TCEP; preincubated 5 min at 70 °C, run at 7 °C; top peak fraction analysed by SDS-PAGE; conditions: both partners purified

In the case of `Nc1ncnc2c1ncn2[C@H]1C[C@H](O)[C@@H](COP(=O)(O)OP(=O)(O)OP(=O)(O)O)O1` [dATP], the “GEMMA, effector-induced R1 dimerization” value [1] is reported as “Allosteric effectors stimulated R1 dimerization, although complete conversion to dimers was not obtained”.

`Nc1nc2c(ncn2[C@@H]2O[C@H](COP(=O)(O)OP(=O)(O)O)[C@@H](O)[C@H]2O)c(=O)[nH]1` [GDP] was tested, and the “HPLC NDP reduction assay” value ([2]; 0.5 mM GDP with CDP, ADP and UDP, dTTP effector 2 mM, 10 mM DTT) was “specific activities for the conversion of CDP, UDP, GDP, and ADP to their corresponding dNDPs”.

`Nc1nc2c(ncn2[C@H]2C[C@H](O)[C@@H](COP(=O)(O)OP(=O)(O)OP(=O)(O)O)O2)c(=O)[nH]1` [dGTP] was tested, and the “HPLC NDP reduction assay” value ([2]; allosteric effector, s-site, induces ADP reduction, 2 mM dGTP, four substrates 0.5 mM each) was “dTTP and dGTP induce the reduction of GDP and ADP, respectively”.

With `Nc1ncnc2c1ncn2[C@@H]1O[C@H](COP(=O)(O)OP(=O)(O)OP(=O)(O)O)[C@@H](O)[C@H]1O` [ATP] the “HPLC NDP reduction assay” value ([2]; allosteric activator, 2 mM ATP, four substrates 0.5 mM each, 10 mM DTT, 10 mM Mg acetate, titration with CDP in Figure S3) was “ATP induces the reduction of CDP and UDP”.

For B1, the “stoichiometry N” value [3] was 2.

With B2 the “stoichiometry N” value [3] was 2 and the “stoichiometry N” value [4] was 1 AaR1:AaR2.
